Laboratory results as given in PubChem BioAssay (NCI).
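Exposure lasted 48 hours, with cells grown in 96-well plates and compounds tested at five concentrations. Here, GI50 denotes the concentration required for 50% inhibition of growth. TGI is the concentration that stops growth completely.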

Experiments:
Experiment in all cases: DTP human tumour cell line panel, 48 h
[1] = system: MDA-N
[2] = system: DLD-1 colon
[3] = system: DMS 114 small cell lung
[4] = system: HOP-18 NSCLC
[5] = system: RXF-631 renal
[6] = system: XF 498 CNS
[7] = system: KM20L2 colon
[8] = system: M19-MEL melanoma

SMILES	TGI [1]	TGI [2]	TGI [3]	TGI [4]	TGI [5]	TGI [6]	TGI [7]	TGI [8]	GI50 [1]	GI50 [2]	GI50 [4]	GI50 [7]
CC1(C)C(N2CCOCC2)CS1(=O)=O (stereo not given)	> 10 µM											
C[C@]12CC[C@H](O[C@@H]3O[C@H](CO[C@@H]4O[C@H](CO)[C@@H](O)[C@H](O)[C@H]4O)[C@@H](O)[C@H](O)[C@H]3O)C[C@@H]1CC[C@@H]1[C@@H]2CC[C@]2(C)[C@@H](C3=CC(=O)OC3)CC[C@]12O	93.5 µM											
Brc1ccccc2cc(-c3ccccc3)nc1-2	29.4 µM	3.74 µM	6.12 µM	13.9 µM	> 53.3 µM	3.44 µM						
NS(=O)(=O)c1ccc(N=Nc2ccc[nH]c2=O)cc1	> 100 µM											
CCOC(=O)C1=C(C)NC(=O)NC1c1ccc(OC)cc1OC (stereo not given)		> 100 µM	> 100 µM	> 100 µM		> 100 µM	> 100 µM	> 100 µM				
O=C(O)CCC(c1ccccc1)(c1ccccc1)c1ccccc1	> 100 µM											
COc1ccc(Oc2nc3cc(N)cc(N)c3nc2-c2ccccc2)cc1	> 100 µM								35.2 µM			
C=CCCCCCCCCCP(=O)(c1ccccc1)c1ccc2c(c1)OCCOCCOCCOCCO2 (stereo not given)		27.3 µM		31.8 µM		32.7 µM	27.1 µM	33 µM				
C[P+]1(Cc2ccccc2)CCCC1		> 100 µM	> 100 µM	> 100 µM			> 100 µM	> 100 µM				
CC(=O)[CH-]C(=O)c1ccccc1.CC(=O)[CH-]C(=O)c1ccccc1.Cl.[O-]c1ccnc2ccccc12.[O-]c1ccnc2ccccc12.[Ti+4]		> 100 µM		> 100 µM			> 100 µM			> 100 µM	> 100 µM	> 100 µM
c1ccc(C2=NOC3C4CCC(C4)C23)cc1 (stereo not given)		> 100 µM	> 100 µM	> 100 µM				> 100 µM				
O=C1c2ccccc2C(=O)N1CCCOCc1c[nH]c(=O)[nH]c1=O		> 100 µM	> 100 µM	> 100 µM	> 100 µM	> 100 µM	> 100 µM	> 100 µM				
CC(=Nc1ccc(N(C)C)cc1)c1ccccc1	52.2 µM											
COc1cccc(NC(=O)CSc2nnc(Cc3ccccc3)o2)c1		> 100 µM	> 100 µM	> 100 µM			> 100 µM	> 100 µM				
CN(C)NC1=C([N+](=O)[O-])C=NN(c2ccccc2)C1		3.6 µM	3.33 µM	3.25 µM	3.33 µM	3.93 µM	3.54 µM	3.23 µM				
C=C1C(=O)O[C@H](c2ccoc2)C[C@@H]1[C@@]1(C)CCCC2(C)C(=O)OCC21 (stereo not given in full)			> 100 µM			> 100 µM	> 100 µM	> 100 µM				
CN(c1ccccc1)c1cc2ccccc2nn1		> 100 µM	> 100 µM	> 100 µM	> 100 µM	> 100 µM	> 100 µM	> 100 µM				
Cc1cccc(C)c1NC(=O)CCC(=O)NC(N)=NC#N		> 100 µM	> 100 µM	> 100 µM	> 100 µM	> 100 µM	> 100 µM	> 100 µM				
CN(C)NC(=O)/C(=C/c1ccc(Cl)cc1)NC(=O)c1ccccc1		> 100 µM		> 100 µM	> 100 µM	> 100 µM	> 100 µM	> 100 µM				
CC1OC(n2cc(C(F)(F)F)c(=O)[nH]c2=O)C=CC1=O (stereo not given)		38.2 µM			25.3 µM	30.3 µM	48.1 µM	43.3 µM				

SMILES	TGI [1]	TGI [2]	TGI [3]	TGI [4]	TGI [5]	TGI [6]	TGI [7]	TGI [8]	GI50 [1]	GI50 [2]	GI50 [4]	GI50 [7]
COc1ccc(CN2C(=O)[C@@H]3Cc4c(OC)c(C)c(OC)c(OC)c4[C@H](/C2=C\c2cc(OC)c(OC)c(C)c2OC)N3C(=O)OC(C)C)cc1		> 100 µM	> 100 µM	> 100 µM	> 100 µM		> 100 µM	> 100 µM				
CC(=O)OCC1OC(n2cccnc2=O)C(OC(C)=O)C1OC(C)=O (stereo not given)		> 100 µM	> 100 µM	> 100 µM	> 100 µM	> 100 µM	> 100 µM	> 100 µM				
COC(=O)C1=CC2C(=O)OC1C1C(=O)NC(=O)C21 (stereo not given)		> 100 µM	> 100 µM	> 100 µM	> 100 µM	> 100 µM	> 100 µM	> 100 µM				
CCC12C=CCN(CCc3c([nH]c4ccccc34)/C=C\1)C2 (stereo not given)			> 100 µM	> 100 µM	> 100 µM	> 100 µM	> 100 µM	> 100 µM				
O=C(NC1CC1)c1c(O)[nH]c(=S)[nH]c1=O		> 100 µM	> 100 µM	> 100 µM	> 100 µM		> 100 µM	> 100 µM				
CC1(C)c2ccccc2N2C(c3ccccc3)=NOC21C (stereo not given)		> 100 µM	> 100 µM	> 100 µM	> 100 µM		> 100 µM	> 100 µM				
CCOC(=O)c1cc(=O)n(C)c(=O)n1C		> 100 µM		> 100 µM		> 100 µM	> 100 µM	> 100 µM				
O=c1nc2sc3ccccc3c(=O)n2[nH]1		> 100 µM		> 100 µM	> 100 µM	> 100 µM	> 100 µM	> 100 µM				
O=C(O)c1ccc2c(c1)C(=O)N(c1ccc(S(=O)(=O)c3ccc(N4C(=O)c5ccc(C(=O)O)cc5C4=O)cc3)cc1)C2=O			> 100 µM			> 100 µM	> 100 µM	> 100 µM				
N#C/C(=C\c1cc(O)c(O)c(O)c1)C(N)=O	> 100 µM	> 100 µM	> 100 µM		> 100 µM	> 100 µM	> 100 µM	> 100 µM				
C/C(=N\NC(=O)c1ccncc1)c1sc(-n2nc(-c3ccccc3)cc2-c2ccccc2)nc1C	> 100 µM											
COc1cccc2c1C(=O)c1c(O)c3c(c(O)c1C2=O)C[C@@](O)(C(=O)CO)CC3OC1CC(N)C(OC2CCCCO2)C(C)O1 (stereo not given in full)	0.362 µM	17.8 µM		1.06 µM		1.47 µM	4.98 µM					
O/N=C(\CC(O)(C(F)(F)F)C(F)(F)F)c1cccs1	> 10 µM											
COC(=O)c1c(O)ccc(O)c1C(C(C)=O)C(C)=O		> 100 µM	> 100 µM			> 100 µM		> 100 µM				
Cc1ccccc1NC(=O)Cc1nc2ccccc2s1		> 100 µM		17.2 µM	32.3 µM	27.6 µM	36.6 µM					
CC[C@H](C)[C@@H]([C@@H](CC(=O)N1CCC[C@H]1[C@H](OC)[C@@H](C)C(=O)NCCc1ccccc1)OC)N(C)C(=O)C(NC(=O)[C@H](C(C)C)N(C)C)C(C)C (stereo not given in full)	0.000164 µM											
Cc1ccc(S(=O)(=O)OCOS(=O)(=O)c2ccc(C)cc2)cc1		> 100 µM	> 100 µM	> 100 µM			> 100 µM	> 100 µM				
O=C(/C=C/c1ccc(Cl)c(Cl)c1)c1ccccc1Cl		10.4 µM	11.2 µM	25.3 µM	31.4 µM	33.3 µM	23.7 µM	17.2 µM				
Cc1ccc2c(c1)-c1c3c(nn1C)-c1ccccc1SC3O2 (stereo not given)		> 100 µM	> 100 µM	> 100 µM		88.5 µM	> 100 µM	> 100 µM				
CC(=O)OC1CCC2OOC1O2 (stereo not given)			> 100 µM				> 100 µM	> 100 µM				
